Reference: patent US12209154B2, “Polymer material” (MENICON CO., LTD., priority 2019, dated 2025)

test: Solubility of compatibilizing monomer in water at 25° C.; type: physicochemical

Compound | solubility
C=C(C)C(=O)OCC(O)COC(=O)C12CC3CC(CC(C3)C1)C2 (stereo not shown) [AdaCO(OH)MA] | < 10000 µg/mL
C=C(C)C(=O)OCC(O)COCC(CC)CCCC (stereo not shown) [EH(OH)MA] | < 10000 µg/mL
C=C(C)C(=O)OCC(O)COC(=O)C1CCCCC1 (stereo not shown) [CyCO(OH)MA] | < 10000 µg/mL
C=C(C)C(=O)OCC(O)CC(F)(F)C(F)(F)C(F)(F)C(F)(F)F (stereo not shown) [C4F9CH2CH(OH)CHMA] | < 10000 µg/mL
C=C(C)C(=O)OC12CC3CC(O)(CC(O)(C3)C1)C2 [DHADM] | < 10000 µg/mL

The remaining lines, values ahead:

solubility | Compound
< 10000 µg/mL | C=CC(=O)OC12CC3CC(CC(O)(C3)C1)C2 [HADA]
< 10000 µg/mL | C=C(C)C(=O)OCC(O)COC(C)C (stereo not shown) [iPr(OH)MA]
< 10000 µg/mL | C=C(C)C(=O)OCC(O)COC(=O)C(C)(C)C (stereo not shown) [tBuCO(OH)MA]
< 10000 µg/mL | C=C(C)C(=O)OCC(O)COC(=O)C(O)CCCCCC (stereo not shown) [MA(OH)OCO(OH)Hp]
< 10000 µg/mL | C=C(C)C(=O)OCC(O)COC(C)(C)C (stereo not shown) [tBu(OH)MA]
